Converted amounts (≈) assume the structure as drawn. Where two headings read alike, the source gives them in different places.
Tests used:
HepG2 cells = experiment: cells; assay type: cell-based, human; conditions: for IC50: MTT, 24 h incubation, HepG2 cells, read-out: HepG2 IC50; for HepG2 TI (IC50 WI-38 / IC50 HepG2): therapeutic index, ratio of WI-38 IC50 to HepG2 IC50
Experimental: Cells were obtained from the ATCC Company (VACSERA), Cairo, Egypt. MTT assay were performed according to the literature method. More details are in the Supporting Information.
Recently, OSe compounds gained much attention as possible drug candidates due to their various pharmacological properties. Our group has reported several OSe candidates with potential anticancer, antimicrobial, and antioxidant activities. Therefore, the anticancer attributes of the newly prepared OSe compounds were estimated using the MTT assay against MCF-7 and HepG2 and compared with their respective cytotoxicity in WI-38 primary cells. The anthracycline drug doxorubicin was used as the standard. The minimal inhibition concentration required to kill 50% of the cells (IC50) was calculated from dose-response curves presented in Table 1. Moreover, the therapeutic index (TI) was also calculated (according to Equation (1)), which is considered a measure of the selectivity and safety of the synthesized compounds. (1) TI=IC50 for the normal WI38 cells/IC50 for the cancer cells […]
1.1. The biological assays
1.1.1. The anticancer activity
The breast adenocarcinoma (MCF-7), Hepatocellular carcinoma (HEPG-2), and nor-mal fibroblast (WI-38) cells were obtained from ATCC via Holding company for biological products and vaccines (VACSERA), Cairo, Egypt. The reagents RPMI-1640 medium, MTT, DMSO, and fetal bovine serum was obtained from Sigma Aldrich. Dulbecco’s modified Eagle’s medium was used as the culture medium for the cells, and the cytotoxicity was evaluated using the reported MTT assay. Doxorubicin was used as the positive reference, and the IC50 values were obtained from the corresponding dose-response curve.
This colorimetric assay is based on converting the yellow tetrazolium bromide (MTT) to a purple formazan derivative by mitochondrial succinate dehydrogenase in viable cells.
Cell lines were cultured in RPMI-1640 medium with 10% fetal bovine serum. Antibiotics added were 100 units/ml penicillin and 100µg/ml streptomycin at 37 C in a 5% Co2 incu-bator. The cell lines were seeded in a 96-well plate at a density of 1.0x10^4 cells/well. at 37 C for 48 h under 5% Co2. After incubation, the cells were treated with different concentra-tions of compounds and incubated for 24 h. After 24 h of drug treatment, 20 µl of MTT solution at 5mg/ml was added and incubated for 4 h. Finally, dimethyl sulfoxide (DMSO) in the volume of 100 µl is added to each well to dissolve the purple formazan formed. The colorimetric assay is measured and recorded at an absorbance of 570 nm using a plate reader (EXL 800, USA). The percentage of the relative cell viability was calculated as (A570 of treated samples/A570 of the untreated sample) X 100. […]
(§1) Inhibition%= (Ablank-Asample)/(Ablank)*100. (1)

Staphylococcus aureus [1] = experiment: Agar diffusion assay, S. aureus; assay type: cell-based; parameters: S. aureus A% (activity index): concentration or dose not given beside the values; conditions: for zone of inhibition at 20 µM: Staphylococcus aureus, read-out: S. aureus IZD (mm); for S. aureus A% (activity index): zone of test compound / zone of standard (ampicillin) x 100
Experimental: (§2) The antimicrobial activities of the OSe compounds were evaluated against C. albicans yeast, as well as E. coli and S. bacteria, employing the agar well diffusion assay. Furthermore, the MICs (in µM) were determined by the microdilution method according to the reported protocol. More details are in the Supporting Information.
Compounds were evaluated for their antimicrobial activity against the Gram-negative bacteria Escherichia coli (E. coli) and the Gram-positive bacteria Staphylococcus aureus (S. aureus), as well as the Candida albicans (C. albicans) fungal strain, using the agar diffusion assay. Ampicillin and clotrimazole were used as standards. Indeed, the antimicrobial properties of the OSe compounds were also obtained from the activity index percentage (A%) according to Equation (2). (2) A%=Zone of inhibition by test compound diametre/Zone of inhibition by standard diametre×100 . […]
(§3) 1.1.1. The antimicrobial activity
(§4) The antimicrobial activities of the OSe compounds were evaluated against C. albicans yeast as well as E. coli gram-negative and S. aureus gram-positive bacteria employing the agar well diffusion assay. Briefly, a concentration of 1 mM was prepared for each compound by dissolving in DMSO. Paper discs of standard size […] were steri-lized in an autoclave and soaked in 20 µL of the test compounds, and placed in the Petri dishes, which in turn contain a nutrient media (agar 20 g, peptone 5 g, and beef extract 3 g) seeded with the dedicated strain. Incubation lasted for 24 h at 36
(§5) Furthermore, the MICs (in µM) were determined by the microdilution method according to the reported protocol. […]
as §1

[2] = ABTS radical scavenging bioassay; assay type: biochemical; conditions: for radical scavenging activity, ABTS assay: compound 1 mM in phosphate-buffered methanol, 734 nm; for IC50: concentration decreasing absorbance by 50%
Source text: The antioxidant activity was estimated by ABTS and DPPH bioassays, according to the reported literature method. More details are in the Supplementary Materials.
Recently, OSe compounds were thoroughly used as redox modulators to control many complicated diseases (e.g., cancer and neurodegenerative diseases). The DPPH and ABTS bioassays were extensively used as rapid tools for estimating the antioxidant potency of OSe compounds [50, 51]. Ascorbic acid was used as a standard control, and the antioxidant potency was measured by the ability of the compounds to decolorize the characteristic colors of the ABTS^. and DPPH^. radicals by following the colorimetric decline in absorbance at 734 and 517 nm, respectively (Figure 2).
Figure 2 Evaluation of the antioxidant properties of the OSe compounds employing the ABTS and DPPH assays. All measurements are mean ± SD. In the DPPH assay: absorbance was read after 0.5 h of mixing […] of DPPH with […] of OSe compounds (1 mM, MeOH) at 517 nm. In the ABTS assay: […] of each OSe compound (1 mM, phosphate-buffered methanol) was mixed with the ABTS solution (60 mM), and absorbance was monitored at 734 nm.
The antioxidant activity of the investigated compounds was assessed using 2,2’-az-ino-bis(3-ethylbenzothiazoline-6-sulphonic acid (ABTS) method. The radical cation derived from ABTS was prepared by the reaction of 60 mM ABTS solution with 0.3 M manganese dioxide solution in 0.1M phosphate buffer, pH 7. Then, the mixture was shaken, centrifuged, filtered, and the absorbance (Acontrol) of the resulting green-blue solu-tion (ABTS radical solution) was measured at wavelength 734 nm. Then, […] of 1 mg/ml test compound in phosphate-buffered methanol was added. The absorbance (Atest) was measured. The reduction in color intensity was expressed as % inhibition. The % inhibi-tion for each compound is calculated from the following equation
Inhibition% = (Acontrol-Asample)/(Acontrol)*100
Ascorbic acid (vitamin C) was used as a standard antioxidant (positive control). A blank sample was run without ABTS and using MeOH/phosphate buffer (1:1) instead of the sample. A negative control sample was run with MeOH/phosphate buffer (1:1) instead

Staphylococcus aureus [3] = experiment: MIC by microdilution, S. aureus; assay type: cell-based
Experimental: as §2, with “Information. […]” for “Information.”
as §3, §4, §5, §1

[4] = inhibition zone diameter, six-mm disks soaked with 20 μM of compound

Row | Molecule | IC50 (HepG2 cells; Homo sapiens) | HepG2 TI (IC50 WI-38 / IC50 HepG2) (HepG2 cells) | zone of inhibition at 20 µM (Staphylococcus aureus [1]; [4]) | S. aureus A% (activity index) (Staphylococcus aureus [1]) | radical scavenging activity, ABTS assay [2] | melting point | MIC (Staphylococcus aureus [3]; Staphylococcus aureus, read-out: MIC (μM) S. aureus) | IC50 [2] | IC50 (HepG2 cells) | S. aureus IZD (mm) (Staphylococcus aureus [1]; [4]) | MIC (μM) S. aureus (Staphylococcus aureus [3]; microdilution)
1 | Nc1ccc([Se]CC(=O)Nc2ccccc2)cc1 [Compound 4, 2-((4-aminophenyl)selanyl)-N-phenylacetamide] | 18.3 ± 1.3 µM | 2.9 | 15 mm | 71% | 78% | 121 to 122 °C | – | – | – | – | –
2 | O=C(O)CCC(=O)Nc1ccc([Se]CC(=O)Nc2ccccc2)cc1 [Compound 11, 4-oxo-4-((4-((2-oxo-2-(phenylamino)ethyl)selanyl)phenyl)amino)butanoic acid] | 26.7 ± 1.9 µM | 2.5 | 13 mm | 62% | 74% | 163 to 165 °C | – | – | – | – | –
3 | O=C(C[Se]c1ccc(N2C(=O)CCC2=O)cc1)Nc1ccccc1 [Compound 14, 2-((4-(2,5-dioxopyrrolidin-1-yl)phenyl)selanyl)-N-phenylacetamide] | 12.6 ± 1 µM | 5 | 14 mm | 67% | 81% | 159 to 161 °C | – | – | – | – | –
4 | Nc1ccc([Se]CC(=O)N[C@@H](Cc2c[nH]c3ccccc23)C(=O)O)cc1 [Compound 6, (2-((4-aminophenyl)selanyl)acetyl)tryptophan] | 8.86 ± 0.7 µM | 3.2 | 18 mm | 86% | 85% | 154 to 156 °C | 2 µM (≈ 0.833 µg/mL) | 31.92 ± 0.29 µM | – | – | –
5 | 2-((4-(2-(3-hydroxynaphthalen-1(4H)-ylidene)hydrazinyl)phenyl)selanyl)-N-phenylacetamide [Compound 9] | – | 5.3 | – | 91% | 88% | – | – | 28.87 ± 0.2 µM | 7.48 ± 0.6 µM | 19 mm | 1 µM
6 | CCOc1ccc(NC(=O)C[Se]c2ccc(N)cc2)cc1 [Compound 5, 2-((4-aminophenyl)selanyl)-N-(4-ethoxyphenyl)acetamide] | > 100 µM | – | 12 mm | 57% | 53% | 136 to 137 °C | – | – | – | – | –
7 | C[Se]c1ccc(NC(=O)CCC(=O)O)cc1 [Compound 16, 4-((4-(methylselanyl)phenyl)amino)-4-oxobutanoic acid] | 32.6 ± 2.3 µM | 0.7 | – | 43% | 71% | 169.6 °C | – | – | – | – | –
8 | C[Se]c1ccc(NC(=O)C=CC(=O)O)cc1 [Compound 15, 4-((4-(methylselanyl)phenyl)amino)-4-oxobut-2-enoic acid] | 9.94 ± 0.8 µM | 2 | 15 mm | 71% | 84% | 171 °C | – | – | – | – | –
